The target of this test is T1, RSV ribonucleoprotein (RNP) complexes (Human respiratory syncytial virus A, UniProt P28887).
T1 construct: The supernatant (S3) fraction, containing the enriched RSV RNP complexes, was collected; endogenous in cells; host or cells: HEp-2 cells infected with RSV A2; detergent-extracted crude S3 fraction
Put plainly: RSV RNP assay (inhibition of RSV RNP transcription). Conditions: 90 minute incubation at 30° C., total radiolabeled transcripts. Format: biochemical, RSV A2. The protocol: RSV ribonucleoprotein (RNP) complexes were prepared from a method modified from Mason at al (1). HEp-2 cells were plated at a density of 7.1×10^4 cells/cm^2 in MEM+10% fetal bovine serum (FBS) and allowed to attach overnight at 37° C. (5% CO2). Following attachment, the cells were infected with RSV A2 (M01=5) in 35 mL MEM+2% FBS. At 20 hours post-infection, the media was replaced with MEM+2% FBS supplemented with 2 μg/mL actinomycin D and returned to 37° C. for one hour. The cells were then washed once with PBS and treated with 35 mL of PBS+250 μg/mL lyso-lecithin for one minute, after which all liquid was aspirated. The cells were harvested by scrapping them into 1.2 mL of buffer A [50 mM TRIS acetate (pH 8.0), 100 mM potassium acetate, 1 mM DTT and 2 μg/mL actinomycin D] and lysed by repeated passage through an 18 gauge needle (10 times). The cell lysate was placed in ice for 10 minutes and then centrifuged at 2400g for 10 minutes at 4° C. The supernatant (S1) was removed and the pellet (P1) was disrupted in 600 uL of Buffer B [10 mM TRIS acetate (pH 8.0), 10 mM potassium acetate and 1.5 mM MgCl2] supplemented with 1% Triton X-100 by repeated passage through an 18 gauge needle (10 times). The resuspended pellet was placed in ice for 10 minutes and then centrifuged at 2400g for 10 minutes at 4° C. The supernatant (S2) was removed and the pellet (P2) was disrupted in 600 uL of Buffer B supplemented with 0.5% deoxycholate and 0.1% Tween 40. The resuspended pellet was placed in ice for 10 minutes and then centrifuged at 2400g for 10 minutes at 4° C. The supernatant (S3) fraction, containing the enriched RSV RNP complexes, was collected and the protein concentration determined by UV absorbance at 280 nm. Aliquoted RSV RNP S3 fractions were stored at −80° C.
Transcription reactions contained 25 μg of crude RSV RNP complexes in 30 μL of reaction buffer [50 mM TRIS-acetate (pH 8.0), 120 mM potassium acetate, 5% glycerol, 4.5 mM MgCl2, 3 mM DTT, 2 mM ethyleneglycol-bis(2-aminoethylether)-tetraacetic acid (EGTA), 50 μg/mL BSA, 2.5 U RNasin (Promega), ATP, GTP, UTP, CTP and 1.5 uCi [α-^32P] NTP (3000 Ci/mmol)]. The radiolabeled nucleotide used in the transcription assay was selected to match the nucleotide analog being evaluated for inhibition of RSV RNP transcription. Cold, competitive NTP was added at a final concentration of one-half its Km (ATP=20 μM, GTP=12.5 μM, UTP=6 μM and CTP=2 μM). The three remaining nucleotides were added at a final concentration of 100 μM.
To determine whether nucleotide analogs inhibited RSV RNP transcription, compounds were added using a 6 step serial dilution in 5-fold increments. Following a 90 minute incubation at 30° C., the RNP reactions were stopped with 350 μL of Qiagen RLT lysis buffer and the RNA was purified using a Qiagen RNeasy 96 kit. Purified RNA was denatured in RNA sample loading buffer (Sigma) at 65° C. for 10 minutes and run on a 1.2% agarose/MOPS gel containing 2M formaldehyde. The agarose gel was dried and exposed to a Storm phosphorimager screen and developed using a Storm phosphorimager (GE Healthcare). The concentration of compound that reduced total radiolabeled transcripts by 50% (IC50) was calculated by non-linear regression analysis of two replicates.

T1 sequence (P28887 whole entry): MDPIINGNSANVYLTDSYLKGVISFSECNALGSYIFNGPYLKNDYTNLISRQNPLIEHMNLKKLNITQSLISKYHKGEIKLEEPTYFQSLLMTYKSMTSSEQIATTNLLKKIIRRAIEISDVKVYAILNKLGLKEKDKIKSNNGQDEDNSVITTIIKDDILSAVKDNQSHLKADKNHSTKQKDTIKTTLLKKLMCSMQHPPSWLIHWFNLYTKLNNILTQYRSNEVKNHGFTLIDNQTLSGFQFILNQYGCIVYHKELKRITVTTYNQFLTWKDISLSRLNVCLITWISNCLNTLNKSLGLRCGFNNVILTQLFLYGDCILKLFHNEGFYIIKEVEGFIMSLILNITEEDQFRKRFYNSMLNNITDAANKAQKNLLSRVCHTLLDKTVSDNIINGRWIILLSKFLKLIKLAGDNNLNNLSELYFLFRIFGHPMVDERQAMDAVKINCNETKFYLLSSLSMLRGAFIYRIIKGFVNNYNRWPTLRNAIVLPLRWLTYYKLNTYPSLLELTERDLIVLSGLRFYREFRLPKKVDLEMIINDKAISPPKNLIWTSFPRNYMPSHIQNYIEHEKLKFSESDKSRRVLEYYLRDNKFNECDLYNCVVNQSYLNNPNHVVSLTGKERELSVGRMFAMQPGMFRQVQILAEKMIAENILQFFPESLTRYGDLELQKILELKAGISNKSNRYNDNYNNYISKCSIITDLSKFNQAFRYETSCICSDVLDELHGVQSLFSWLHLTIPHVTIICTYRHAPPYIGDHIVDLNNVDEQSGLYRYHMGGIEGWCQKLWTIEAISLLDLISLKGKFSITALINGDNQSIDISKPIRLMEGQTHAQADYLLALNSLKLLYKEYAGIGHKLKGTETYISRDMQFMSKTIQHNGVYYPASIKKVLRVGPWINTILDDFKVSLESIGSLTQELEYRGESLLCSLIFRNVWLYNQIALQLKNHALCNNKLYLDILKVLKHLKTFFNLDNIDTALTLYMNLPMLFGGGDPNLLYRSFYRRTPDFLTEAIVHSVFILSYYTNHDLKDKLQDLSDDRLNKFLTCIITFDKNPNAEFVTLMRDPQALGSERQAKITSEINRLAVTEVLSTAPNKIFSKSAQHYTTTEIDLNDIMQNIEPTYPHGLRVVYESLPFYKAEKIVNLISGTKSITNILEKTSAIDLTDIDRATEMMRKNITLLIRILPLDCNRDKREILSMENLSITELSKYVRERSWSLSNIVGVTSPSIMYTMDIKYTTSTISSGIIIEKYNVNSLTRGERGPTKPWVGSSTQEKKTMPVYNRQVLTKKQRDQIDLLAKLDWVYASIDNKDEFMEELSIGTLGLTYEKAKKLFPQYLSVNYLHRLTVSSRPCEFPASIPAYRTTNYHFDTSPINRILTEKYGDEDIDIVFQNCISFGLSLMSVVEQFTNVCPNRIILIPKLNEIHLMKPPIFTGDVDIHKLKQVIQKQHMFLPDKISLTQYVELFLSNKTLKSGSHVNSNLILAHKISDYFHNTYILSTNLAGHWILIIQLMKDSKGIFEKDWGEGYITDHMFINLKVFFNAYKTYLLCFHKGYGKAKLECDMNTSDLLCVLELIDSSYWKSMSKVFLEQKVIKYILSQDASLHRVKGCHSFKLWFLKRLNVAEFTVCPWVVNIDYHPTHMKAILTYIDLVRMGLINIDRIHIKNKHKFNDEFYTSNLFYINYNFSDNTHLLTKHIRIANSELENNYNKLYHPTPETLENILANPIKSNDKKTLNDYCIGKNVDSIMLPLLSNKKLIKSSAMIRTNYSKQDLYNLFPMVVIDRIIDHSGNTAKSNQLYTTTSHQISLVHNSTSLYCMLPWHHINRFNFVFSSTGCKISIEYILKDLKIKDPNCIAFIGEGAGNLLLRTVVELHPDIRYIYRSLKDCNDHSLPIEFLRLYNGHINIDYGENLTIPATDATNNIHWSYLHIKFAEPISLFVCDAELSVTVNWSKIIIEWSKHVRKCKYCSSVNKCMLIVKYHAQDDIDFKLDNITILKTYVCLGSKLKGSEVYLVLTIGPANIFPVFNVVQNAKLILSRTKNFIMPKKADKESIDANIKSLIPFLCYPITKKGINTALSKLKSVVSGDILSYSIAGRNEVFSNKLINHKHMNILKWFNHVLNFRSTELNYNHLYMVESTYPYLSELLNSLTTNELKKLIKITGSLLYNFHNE
T1 sequence (P03421 whole entry, further chain): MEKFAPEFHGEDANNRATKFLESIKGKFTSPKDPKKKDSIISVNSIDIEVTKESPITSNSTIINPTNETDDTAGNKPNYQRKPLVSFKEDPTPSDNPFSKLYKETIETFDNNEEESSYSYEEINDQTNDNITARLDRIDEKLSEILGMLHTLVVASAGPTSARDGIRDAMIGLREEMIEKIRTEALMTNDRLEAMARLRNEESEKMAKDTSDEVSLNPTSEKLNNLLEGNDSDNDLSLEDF

As to `C=C[C@]1(COP(=O)(O)OP(=O)(O)OP(=O)(O)O)O[C@@H](c2ccc3c(N)ncnn23)[C@H](F)[C@@H]1O` [Example 17, ((2R,3R,4R,5S)-5-(4-aminopyrrolo[2,1-f][1,2,4]triazin-7-yl)-4-fluoro-3-hydroxy-2-vinyltetrahydrofuran-2-yl)methyl tetrahydrogen triphosphate], the IC50 was 560 nM. That is a sub-micromolar value.

The compound `N#C[C@]1(COP(=O)(O)OP(=O)(O)OP(=O)(O)O)O[C@@H](c2cc(F)c3c(N)ncnn23)[C@H](O)[C@@H]1O` [Example 32, ((2R,3S,4R,5S)-5-(4-amino-5-fluoropyrrolo[2,1f-][1,2,4]triazin-7-yl)-2-cyano-3,4-dihydroxytetrahydrofuran-2-yl)methyl tetrahydrogen triphosphate] yielded an IC50 of 22 nM.

Regarding `CC[C@]1(COP(=O)(O)OP(=O)(O)OP(=O)(O)O)O[C@@H](c2ccc3c(N)ncnn23)[C@H](F)[C@@H]1O` [Example 18, ((2R,3R,4R,5S)-5-(4-aminopyrrolo[2,1-f][1,2,4]triazin-7-yl)-2-ethyl-4-fluoro-3-hydroxytetrahydrofuran-2-yl)methyl tetrahydrogen triphosphate], the IC50 is 420 nM.

The compound `[N-]=[N+]=N[C@]1(COP(=O)(O)OP(=O)(O)OP(=O)(O)O)O[C@@H](c2cc(F)c3c(N)ncnn23)[C@H](F)[C@@H]1O` [Example 28, ((2R,3R,4R,5S)-5-(4-amino-5-fluoropyrrolo[2,1f-][1,2,4]triazin-7-yl)-2-azido-4-fluoro-3-hydroxytetrahydrofuran-2-yl)methyl tetrahydrogen triphosphate] came in with an IC50 of 86 nM. This IC50 lies about 4.9-fold lower than the previous one.

`C[C@@]1(F)[C@H](O)[C@@H](COP(=O)(O)OP(=O)(O)OP(=O)(O)O)O[C@H]1c1ccc2c(N)ncnn12` [((2R,3R,4R,5S)-5-(4-aminopyrrolo[2,1-f][1,2,4]triazin-7-yl)-4-fluoro-3-hydroxy-4-methyltetrahydrofuran-2-yl)methyl tetrahydrogen triphosphate, reference compound] returned an IC50 of more than 100000 nM.

As for `[N-]=[N+]=N[C@]1(COP(=O)(O)OP(=O)(O)OP(=O)(O)O)O[C@@H](c2ccc3c(N)ncnn23)[C@H](F)[C@@H]1O` [Example 27, ((2R,3R,4R,5S)-5-(4-aminopyrrolo[2,1-f][1,2,4]triazin-7-yl)-2-azido-4-fluoro-3-hydroxytetrahydrofuran-2-yl)methyl tetrahydrogen triphosphate], 97 nM corresponded to half-maximal inhibition (IC50).

Compound `[N-]=[N+]=N[C@]1(COP(=O)(O)OP(=O)(O)OP(=O)(O)O)O[C@@H](c2ccc3c(N)ncnn23)[C@H](O)[C@@H]1O` [Example 9, ((2R,3S,4R,5S)-5-(4-aminopyrrolo[2,1-f][1,2,4]triazin-7-yl)-2-azido-3,4-dihydroxytetrahydrofuran-2-yl)methyl tetrahydrogen triphosphate] returned a half-maximal inhibitory concentration (IC50) of 120 nM.

In the case of `C[C@@]1(O)[C@H](O)[C@@H](COP(=O)(O)OP(=O)(O)OP(=O)(O)O)O[C@H]1c1ccc2c(N)ncnn12` [((2R,3R,4R,5S)-5-(4-aminopyrrolo[2,1-f][1,2,4]triazin-7-yl)-3,4-dihydroxy-4-methyltetrahydrofuran-2-yl)methyl tetrahydrogen triphosphate, reference compound], the concentration for half-maximal inhibition (IC50) was 8500 nM.

The compound `N#C[C@]1(COP(=O)(O)OP(=O)(O)OP(=O)(O)O)O[C@@H](c2ccc3c(N)ncnn23)[C@H](F)[C@@H]1O` [Example 6, ((2R,3R,4R,5S)-5-(4-aminopyrrolo[1,2-f][1,2,4]triazin-7-yl)-2-cyano-4-fluoro-3-hydroxytetrahydrofuran-2-yl)methyl tetrahydrogen triphosphate] showed an IC50 of 86 nM.

Broadly, the IC50 is the point on the concentration scale where inhibition reaches its midpoint.

For the origin of these results see patent US9388208B2, “Pyrrolo[1,2-f][1,2,4]triazines useful for treating respiratory syncitial virus infections” (Gilead Sciences, Inc., priority 2013, dated 2016).
